As a reminder, the IC50 is the midpoint of a concentration-inhibition curve.

Entries after “also recorded” stand apart in the source; their conditions may differ.

Results on two molecules are retold here after publication PMC6383986, “Fragment-Based Covalent Ligand Screening Enables Rapid Discovery of Inhibitors for the RBR E3 Ubiquitin Ligase HOIP” (Journal of the American Chemical Society, 2019).

One test deals with T1, HOIP RBR domain (Homo sapiens, UniProt Q96EP0).
T1 construct: made in house; host or cells: E. coli BL21-GOLD(DE3)
T1 sequence (Q96EP0 697-1072): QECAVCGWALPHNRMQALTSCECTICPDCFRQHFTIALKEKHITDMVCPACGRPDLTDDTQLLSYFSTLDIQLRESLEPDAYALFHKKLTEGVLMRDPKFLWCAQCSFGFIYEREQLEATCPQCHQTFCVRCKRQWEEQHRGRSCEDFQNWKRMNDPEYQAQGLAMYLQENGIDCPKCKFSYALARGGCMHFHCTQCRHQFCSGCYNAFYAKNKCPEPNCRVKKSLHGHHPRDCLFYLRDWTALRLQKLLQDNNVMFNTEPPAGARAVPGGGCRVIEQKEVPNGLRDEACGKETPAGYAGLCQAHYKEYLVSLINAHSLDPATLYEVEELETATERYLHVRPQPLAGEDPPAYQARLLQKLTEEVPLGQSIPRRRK
In words: In vitro polyubiquitination assay. The settings on record: HOIP RBR preincubated with compound (200 μM) overnight; E2 UbcH7 or UbcH5c; vs DMSO. The class given is biochemical. Here is the method:
4.3 Polyubiquitination assay
The ubiquitination assay was essentially carried out as previously described.12 The HOIP RBR domain was pre-incubated with compounds (5) or (6), or DMSO in 50 mM HEPES, 150 mM NaCl, pH 7.5 buffer at 23 °C with gentle shaking for overnight (20-24 h). E1, E2 (UbcH7 or UbcH5c), ubiquitin, and MgCl2 were added to each vial, and aliquots of 15 µL were withdrawn to mark time zero. ATP was then added and aliquots of 15 µL were withdrawn after 5, 15, 30, and 60 min incubation. Final concentrations: E1 (1 µM), E2 (5 µM), E3 (5 µM), compounds (200 µM), DMSO (1%), ubiquitin (40 µM), MgCl2 (20 mM), ATP (10 mM); reaction volume 100 µL. The aliquots were analyzed by SDS PAGE (Figure 4A and Supplementary Figure S9) as described below (section

For test [1], the system named is NF-κB activation in HEK293T cells overexpressing full length HOIP, HOIL-1L, and SHARPIN. The test can be described thus: NF-κB Luciferase reporter assay. The test is classed as cell-based. The settings on record: Homo sapiens, HEK-293T; overnight (17 h) treatment; estimated; read-out: IC50, inhibition of NF-κB activation. Here is the method: suspensions were agitated at 4 °C overnight. The supernatants were removed and kept on ice, and the beads were washed with wash buffer (2 × 0.5 mL), PBS (2 × 0.5 mL), and 50 mM HEPES, 150 mM NaCl, pH 7.5 buffer (2 × 0.5 mL).
A polyubiquitination assay master mix was prepared by mixing E1, UbcH7, ubiquitin, MgCl2, in buffer (50 mM HEPES, 150 mM NaCl, pH 7.5). The solution (30 µL per sample) was added to the beads, and lastly ATP (0.6 µL of 100 mM stock) was added to initiate the reaction. Final concentrations were E1 (0.2 µM), UbcH7 E2 (1 µM), ubiquitin (10 µM), MgCl2 (4 mM), ATP (2 mM). The vials were incubated (Eppendorf Thermomixer) at 25 °C, 900 rpm for 1.5 h. […] All samples were analyzed by SDS PAGE and Western Blot (Figure 6C and Supplementary Figure S13) as described in sections 4.5 and 4.6. […]
Reporter assays: After incubating the plates for 17 h, Firefly and Renilla Luciferase activity was analyzed using the Dual-Luciferase® Reporter Assay System (Promega) and a BertholdTech […]
with Mikrowin 2000 software version 4.41: using its injectors to inject 100 µL LAR II and 100 µL Stop&Glo (see manufacturer’s instructions; Promega #E1960). NF-κB regulated luciferase activity was first normalized to Renilla luciferase activity and then the fold activation relative to cells transfected with empty vector calculated. […]
reader. […]

As for `COC(=O)/C=C/CNC(=O)c1cc2c([nH]c1=O)CCC2` [Compound 5], on HOIP RBR domain, the polyubiquitin chain formation entry is reported as “fully abolished chain formation; also recorded: complete inhibition of polyubiquitin chain formation”. Take `COC(=O)/C=C/CNC(=O)c1cc2c([nH]c1=O)CCCC2` [Compound 11a]: the IC50 in test [1] is 37 ± 4 µM.
